Results published in US5298519A, “Acylals of imidazole-5-carboxylic acid derivatives, and their use as angiotensin (II) inhibitors” (priority 1991, dated 1994).

Assays:
[1] = target: angiotensin II-1 subtype receptor; test: affinity for angiotensin II-1 subtype receptor on rat adrenal cortex microsomes (3H-DuP 753); format: binding; details: adrenal cortex microsomes of rats
Protocol: The affinity of the substances for the angiotensin II-1 subtype receptor was determined on adrenal cortex microsomes of rats (system: ^3 H-DuP 753).

angiotensin II [2] = test: pithed rats, inhibition of hypertensive action of angiotensin II; format: in vivo, rat
Excerpt: FIGS. 2a), b) and c) depict the effect of the presently claimed and known intravenously administered compounds on angiotensin II induced increases on diastolic blood pressure in pithed rats.
FIGS. 3a), b) and c) depict the effect of known and claimed intraduodenally administered compounds on angiotensin II induced increases of diastolic blood pressure in pithed rats.
FIG. 4 depicts further the effect of known and prior art intraduodenally administered compounds on angiotensin II induced increases of diastolic blood pressure in pithed rats.

angiotensin II [3] = test: anaesthetized, normotensive rats, duration of action against angiotensin II after intraduodenal administration; format: in vivo, rat; details: for time to maximum angiotensin antagonistic action: after intraduodenal administration, Example 1 at 3 mg/kg
Protocol: FIG. 5 depicts the effect of known and prior art intraduodenally administered compounds on angiotensin II induced increases of mean arterial blood pressure in anaesthetized, normotensive rats.
FIGS. 6a) and b) depict the effect of known and prior art intraduodenally administered compounds on antiotensin II induced increases in mean arterial blood pressure in normotensive rats.
The duration of action of the substance was determined in anaesthetized, normotensive rats. Angiotensin II (1 μg.kg) was administered intravenously before substance administration and at 15 minute intervals after intraduodenal substance administration.

angiotensin II receptor [4] = details: cited from earlier work
angiotensin II receptor [5] = test: isolated rat aorta, inhibition of maximum contraction due to angiotensin II; format: cell-based; details: for inhibition at 0.1 µM / inhibition at 0.01 µM / inhibition at 0.001 µM: Rattus norvegicus, angiotensin II 3 × 10^-7 mol/l; for inhibition at 0.1 µM: 10^-7 mol/l compound; for inhibition at 0.01 µM: 10^-8 mol/l compound; for inhibition at 0.001 µM: 10^-9 mol/l compound
Excerpt: FIGS. 1a) and b) depict the action of a compound according to the present invention and a compound of the prior art on the contractile force of an isolated rat aorta.
Isolated rat aorta: % inhibition of the maximum contraction

[6] = anaesthetized normotensive rats, intraduodenal

Row | IC50 [1] [nM] | SMILES | type of inhibition of the hypertensive action of angiotensin II (angiotensin II [2]) | sequence of potency (angiotensin II [2]; intraduodenal) | time to maximum angiotensin antagonistic action (angiotensin II [3]) [min] | sequence of potency (angiotensin II [3]; [6]) | conversion on in vivo administration (angiotensin II receptor [4]; in vivo) | inhibition at 0.1 µM (angiotensin II receptor [5]) [%] | inhibition at 0.01 µM (angiotensin II receptor [5]) [%] | inhibition at 0.001 µM (angiotensin II receptor [5]) [%] | type of angiotensin II receptor antagonism (angiotensin II receptor [5]; isolated rat aorta) | reduction of the maximum contraction due to angiotensin II (in words) (angiotensin II receptor [5]; isolated rat aorta, 10^-9 -10^-7 mol/l) | contribution to the duration of action of DuP 753 (angiotensin II receptor [4]; in vivo) | type of antagonism (angiotensin II receptor [4]; metabolite of DuP 753) | potency after intraduodenal administration (angiotensin II [2]; intraduodenal) | potency relative to EXP 3174 (angiotensin II [2]; intravenous, Example 1 0.3-10 mg/kg) | potency relative to DuP 753 (angiotensin II [2]; intravenous, Example 1 0.3-10 mg/kg, DuP 753 1-10 mg/kg) | effectiveness relative to 10 mg/kg of DuP 753 (angiotensin II [3]; 3 mg/kg of Example 1, intraduodenal, anaesthetized normotensive rats) | onset of action (angiotensin II [3]; intraduodenal, normotensive rats)
1 | 7.24 | CCCCc1nc(Cl)c(CO)n1Cc1ccc(-c2ccccc2-c2nnn[nH]2)cc1 [DuP 753, 2-n-butyl-4-chloro-5-hydroxymethyl-1-((2'-(1H-tetrazol-5-yl)biphenyl-4-yl)methyl)imidazole] | competitive inhibition, that is to say to a parallel shift to the right of the dose-response curve of angiotensin II without a reduction in the maximum effect | Example 1>DuP 753>EXP 3174 | 30 to 60 | Example 1>DuP 753 | converted on in vivo administration to a non-competitive metabolite EXP 3174 |  |  |  |  |  |  |  |  |  |  |  | 
2 | 79.4 | CCCCc1nc(Cl)c(C(=O)OC(C)OC(=O)OCC)n1Cc1ccc(-c2ccccc2-c2nn[nH]n2)cc1 (stereo not drawn) [Example 1] | in a non-competitive manner | Example 1>DuP 753>EXP 3174 | 15 | Example 1>DuP 753 |  | 98 | 72 | 63 | selective, non-competitive angiotensin II receptor antagonists |  |  |  | by far the most potent substance | about as potent as EXP 3174 | slightly more potent than DuP 753 | about twice as effective as 10 mg/kg of DuP 753 | particularly rapid, dose-dependent onset of action

Row | SMILES | IC50 [1] [nM] | type of inhibition of the hypertensive action of angiotensin II (angiotensin II [2]) | sequence of potency (angiotensin II [2]; intraduodenal) | time to maximum angiotensin antagonistic action (angiotensin II [3]) [min] | sequence of potency (angiotensin II [3]; [6]) | conversion on in vivo administration (angiotensin II receptor [4]; in vivo) | inhibition at 0.1 µM (angiotensin II receptor [5]) [%] | inhibition at 0.01 µM (angiotensin II receptor [5]) [%] | inhibition at 0.001 µM (angiotensin II receptor [5]) [%] | type of angiotensin II receptor antagonism (angiotensin II receptor [5]; isolated rat aorta) | reduction of the maximum contraction due to angiotensin II (in words) (angiotensin II receptor [5]; isolated rat aorta, 10^-9 -10^-7 mol/l) | contribution to the duration of action of DuP 753 (angiotensin II receptor [4]; in vivo) | type of antagonism (angiotensin II receptor [4]; metabolite of DuP 753) | potency after intraduodenal administration (angiotensin II [2]; intraduodenal) | potency relative to EXP 3174 (angiotensin II [2]; intravenous, Example 1 0.3-10 mg/kg) | potency relative to DuP 753 (angiotensin II [2]; intravenous, Example 1 0.3-10 mg/kg, DuP 753 1-10 mg/kg) | effectiveness relative to 10 mg/kg of DuP 753 (angiotensin II [3]; 3 mg/kg of Example 1, intraduodenal, anaesthetized normotensive rats) | onset of action (angiotensin II [3]; intraduodenal, normotensive rats)
3 | CCCCc1nc(Cl)c(C(=O)O)n1Cc1ccc(-c2ccccc2-c2nnn[nH]2)cc1 [EXP 3174, 2-n-butyl-4-chloro-1-((2'-(1H-tetrazol-5-yl)biphenyl-4-yl)methyl)imidazole-5-carboxylic acid] | 7.87 | in a non-competitive manner | Example 1>DuP 753>EXP 3174 |  |  |  | 100 | 95 | 76 | selective, non-competitive angiotensin II receptor antagonists | acting in a comparatively more potent manner | responsible to a large extent for the duration of action of DuP 753 | non-competitive |  |  |  |  | 
